In PMC5567267, “Discovery of a potent protein kinase D inhibitor: insights in the binding mode of pyrazolo[3,4-d]pyrimidine analogues” (MedChemComm, 2017):
Read-outs that look alike come from different tables or passages of the source.

Columns and labels:
PKD2 [1] = molecular target: T1, PKD2 (Homo sapiens, UniProt Q9BZL6); assay: Cellular screening assay using phospho-cortactin (Ser-298) as a readout; type: cell-based; settings: HEK293T cells co-transfected with FLAG-PRKD2 and myc-CTTN; for cellular activity against PKD2 (in words): pSer-298 cortactin western blot; for inhibition at 40 µM: HEK-293T, 40 μM compound, 30 min pretreatment, 500 nM PDB 15 min, read-out: inhibition of PKD2 mediated cortactin Ser-298 phosphorylation
T1 construct: made in house; host or cells: HEK293T cells, transient transfection with pDEST27-PRKD2, stimulated with 500 nM PDB before lysis
T1 sequence (Q9BZL6 1-878): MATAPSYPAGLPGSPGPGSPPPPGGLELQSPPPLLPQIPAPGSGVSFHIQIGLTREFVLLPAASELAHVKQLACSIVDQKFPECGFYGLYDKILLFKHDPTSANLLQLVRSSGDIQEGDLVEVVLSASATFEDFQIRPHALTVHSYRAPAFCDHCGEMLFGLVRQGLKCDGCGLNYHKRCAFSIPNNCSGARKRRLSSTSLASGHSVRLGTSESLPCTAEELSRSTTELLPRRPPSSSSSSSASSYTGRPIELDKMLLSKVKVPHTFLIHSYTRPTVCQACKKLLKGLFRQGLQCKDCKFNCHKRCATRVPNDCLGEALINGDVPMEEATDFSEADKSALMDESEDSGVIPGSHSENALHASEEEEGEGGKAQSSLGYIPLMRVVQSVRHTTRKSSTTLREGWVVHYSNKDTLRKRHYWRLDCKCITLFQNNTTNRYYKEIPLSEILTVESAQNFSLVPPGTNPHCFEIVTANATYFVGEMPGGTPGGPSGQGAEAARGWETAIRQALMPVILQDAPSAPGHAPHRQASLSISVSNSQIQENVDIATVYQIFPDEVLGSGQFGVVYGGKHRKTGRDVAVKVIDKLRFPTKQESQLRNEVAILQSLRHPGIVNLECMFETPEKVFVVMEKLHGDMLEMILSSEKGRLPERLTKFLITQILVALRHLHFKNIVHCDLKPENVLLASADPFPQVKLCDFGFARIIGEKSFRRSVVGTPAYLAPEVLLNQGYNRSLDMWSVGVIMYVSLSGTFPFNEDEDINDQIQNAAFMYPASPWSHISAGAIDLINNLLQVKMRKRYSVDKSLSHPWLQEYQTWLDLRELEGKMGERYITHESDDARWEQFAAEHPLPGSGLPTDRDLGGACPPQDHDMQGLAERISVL
Description: Therefore we used a cellular assay in which we were able to specifically follow PKD mediated phosphorylation of cortactin, a known PKD substrate, at Ser-298.[15] […] Cortactin phosphorylation at Ser-298 in our assay was PKD-specific, since co-transfection of PKD and cortactin was necessary to produce an adequate signal (data not shown). We selected four compounds for further validation in a cellular assay against PKD2 (Fig. 5).
Fig. 5 The effect of 1-NM-PP1 analogues on PKD mediated phosphorylation of cortactin at Ser-298. HEK293T cells co-transfected with FLAG-PRKD2 and myc-CTTN were pretreated with the indicated compounds for 30 min prior to stimulation with 500 nM Phorbol 12,13-dibutyrate (PDB) for 15 min. Phosphorylation of cortactin was followed via western blot using a home-made pSer-298 antibody and subsequently reprobed for total cortactin (anti-c-Myc; 9E10) and PKD (anti-FLAG M2). Quantification of pSer-298/c-Myc signals of three independent experiments is shown in the graph below. […]
Cellular screening assay using phospho-cortactin as a readout
HEK293T cells were seeded in a 12-well plate at 150.000 cells/well. The next day, cells were transfected with 0.5µg of pcDNA3-Myc-CTTN and 0.5µg of pdcDNA-FLAG-PRKD2. Forty-eight hours after transfection, cells were incubated with compound at the indicated concentrations for 30 min, followed by stimulation with 500nM phorbol 12,13-dibutyrate (PDB) for 15 min. Subsequently, cells were lysed in 50mM Tris pH 7.4, 15mM EDTA, 150mM NaCl, 0.1% (v/v) NP-40 and 25% (v/v) glycerol. Protein quantitation was determined via a Bradford assay. Equal amounts of lysate (30µg) were loaded on a SDS-polyacrylamide gel and subjected to immunoblotting. Blots were probed with Cortactin pSer-298 antibody (home-made) and anti-tubulin antibody (Sigma, St. Louis, Missouri). Subsequently, blots were stripped and reprobed with anti-Myc 9E10 (Sigma, St.
Louis, Missouri) for cortactin and anti-FLAG M2 (Sigma, St. Louis, Missouri) for PKD2.

PKD2 [2] = molecular target: T1, PKD2; assay: PKD2 screening assay (in vitro radiometric kinase assay); type: biochemical; settings: for remaining activity at 1 µM: 10 min
Experimental: All 35 described analogues were characterized in vitro via an initial screening at 1 μM against PKD2. […]
scanning of a coomassie stained SDS-polyacrylamide gel.
An in vitro radiometric assay was used to determine the inhibition of PKD in presence of various compounds at a […]
determinations. Reactions were carried out in 40µl of a mixture containing 50mM Tris-HCl pH 7.4, 10mM MgCl2, 50ng of PDB stimulated GST-PKD2, 4µg/ml Syntide-2 (Sigma Aldrich, St. Louis, USA), 25µM ATP and 2µCi [γ-32P]ATP (Perkin-Elmer, Massachusetts, USA). After 10’ the reaction was stopped by spotting 30µl of the reaction on whatmann P81 filter paper. The filter papers were washed 3 times in 0.5% phosphoric acid, followed by one wash in 100% acetone. Subsequently the papers were air-dried and counted using the Tri-Carb 2810 TR scintillation counter (Perkin-Elmer). Percentage of PKD2 inhibition was determined relative to a condition where no inhibitor was added (0,1% dimethylsulfoxide (DMSO)). Graphs were plotted and IC50 values were determined using the GraphPad software package (Prism). […]

PKD = system: PKD; parameters: method as in Wang group; settings: previously reported value; different assay setup and enzyme preparation; ref Wang group; cited from earlier work
[3] = ESI table, initial screening of all analogues at 1µM, read-out: % PKD2 activity remaining (1µM) (average ±SD)
[4] = compound at 1 μM, PDB stimulated GST-PKD2, Syntide-2, 25µM ATP, relative to no inhibitor (DMSO), read-out: % PKD 2 activity remaining (1 μM) (Average ± SD)
[5] = PDB stimulated GST-PKD2, Syntide-2, 25µM ATP, radiometric

In the case of `CCCCNc1nc(N)c2c(-c3cccc4ccccc34)nn(C(C)(C)C)c2n1` [Compound 13h, N6-butyl-1-tert-butyl-3-(1-naphthyl)-1H-pyrazolo[3,4-d]pyrimidine-4,6-diamine], the “cellular activity against PKD2 (in words)” value (shortened to “cellular activity”) (PKD2 [1]) is reported as “negligible cellular activity”, the remaining activity at 1 µM (PKD2 [2]; [3]) is reported as 89 ± 6.2% and the remaining activity at 1 µM (PKD2 [2]; [4]) is reported as 89 ± 6.2%. The IC50 (PKD2 [2]; [5]) was 8.17 µM.
With `CC(C)(C)n1nc(-c2c[nH]c3ccccc23)c2c(N)ncnc21` [Compound 18, 1-tert-butyl-3-(1H-indol-3-yl)-1H-pyrazolo[3,4-d]pyrimidin-4-amine] the “cellular activity” value (PKD2 [1]) was “dose-dependent inhibition”, the inhibition at 40 µM (PKD2 [1]) was 85% and the remaining activity at 1 µM (PKD2 [2]; [3]) was 8 ± 0.8%. For the same compound, the remaining activity at 1 µM (PKD2 [2]; [4]) was 8 ± 0.8%, the IC50 (PKD2 [2]; [5]) was 0.033 µM and the “fold increase in potency compared to 1-NM-PP1” value (PKD2 [2]; PKD2 IC50 relative to 1-NM-PP1) was 10 fold. For the same compound, the IC50 (PKD2 [2]; in vitro potency as stated in the conclusions) was ~0.033 µM.
For `CC(C)(C)n1nc(Cc2cccc3ccccc23)c2c(N)ncnc21` [Compound 1, 1-tert-butyl-3-(1-naphthylmethyl)-1H-pyrazolo[3,4-d]pyrimidin-4-amine, reference compound], the “cellular activity” value (PKD2 [1]) was “dose-dependent inhibition”, the inhibition at 40 µM (PKD2 [1]) was 50% and the remaining activity at 1 µM (PKD2 [2]; [3]) was 23 ± 1.7%. The remaining activity at 1 µM (PKD2 [2]; [4]) was 23 ± 1.7%, the IC50 (PKD2 [2]; [5]) was 0.398 µM and the IC50 (PKD) was 0.133 µM.
With `CC(C)(C)n1nc(-c2cc3ccccc3s2)c2c(N)ncnc21` [Compound 6l] the “cellular activity” value (PKD2 [1]) was “did not show cellular activity”, the remaining activity at 1 µM (PKD2 [2]; [3]) was 53 ± 7.1% and the remaining activity at 1 µM (PKD2 [2]; [4]) was 53 ± 7.1%. For the same compound, the IC50 (PKD2 [2]; [5]) was 2.21 µM.
